According to patent US12077534B2, “Aza-heterobicyclic inhibitors of MAT2A and methods of use for treating cancer” (Les Laboratoires Servier SAS, priority 2018, dated 2024):
Where two headings read alike, the source gives them in different places.

Legend:
HCT116 MTAP−/− = assay: Inhibition of cellular proliferation (Cell Titer Glo), HCT116 MTAP-/-; assay type: cell-based; details: Homo sapiens, HCT-116, 96 h, 4 days, read-out: 4 Day Relative Growth Inhibition (MTAP −/−)
Description: (§1) Test compound impact on cancer cell growth was assessed by treating cancer cells with compound for 4 days and then measuring proliferation using an ATP-based cell proliferation readout (Cell Titer Glo, Promega Corporation).
(§2) In a typical assay an isogenic pair of HCT116 human colon carcinoma cell lines which vary only in MTAP deletion status (HCT116 MTAP+/+ and HCT116 MTAP−/−) were plated in 96-well dishes at appropriate cell density. Following 24 hours, cells were then treated with the candidate MAT2A inhibitor. Prior to addition to cells, the compound was first serially diluted in 100% DMSO, typically as a 3-fold serial dilution starting at 500× top dose with 10 dose points including DMSO only control. Compound was then transferred to a working stock plate in cell culture media by adding 5 μL of compound in DMSO to 495 μL of cell culture media. This working stock was then added to cells via a further 5-fold dilution, by adding 25 μL of working stock to 100 μL of cells in culture media. Following compound addition, cells were incubated at 37° C./5% CO2 for 4 days.
(§3) To measure inhibition of cellular proliferation, cells were allowed to equilibrate to room temperature for 30 minutes, and were then treated with 125 μL of Cell Titer Glo reagent. The plate was then covered with aluminum foil and shaken for 15 minutes to ensure complete mixing and full cell lysis. Luminescent signal was then measured using a plate-based luminometer Veritas version 1.9.2 using ATP standard curve to confirm assay reproducibility from run to run. This luminescence measure was converted to a proliferation index by subtracting from each data point the ATP luminescence signal measured from a bank (no cells) well and dividing by the ATP luminescence signal measured in 0.2% DMSO control well adjusted for signal in blank well. Compound activity was then represented as a percentage change in proliferation relative to a within-plate DMSO control against log 10 of compound concentration in molar (M) units.

HCT116 MTAP+/+ = assay: Inhibition of cellular proliferation (Cell Titer Glo), HCT116 MTAP+/+; assay type: cell-based; details: Homo sapiens, HCT-116, 96 h, 4 days, read-out: 4 Day Relative Growth Inhibition (MTAP +/+)
Description: as §1, §2, §3

[1] = system: MAT2A activity (SAM) in HCT116 cells with deleted MTAP gene; assay: Cellular assay of target engagement (SAM) by LC-MS/MS; assay type: cell-based; details: Homo sapiens, read-out: Cell 72 h SAM Inhibition (MTAP −/−)
Description: Measurement of MAT2A activity in cells was made by direct quantitation of the abundance of the product of its enzymatic activity, SAM. Cancer cells were treated with candidate MAT2A inhibitors for a suitable incubation period, and the cells were then lysed using a reagent which quenched any further enzyme activity. Soluble metabolites including SAM were collected and SAM itself was directly measured from the lysate using quantitative LC-MS/MS.
A typical assay was performed using an HCT116 human colon carcinoma cell line which was genetically engineered to delete the MTAP gene (commercially available from Horizon Discovery). This cell line was utilized because it was determined that loss of the MTAP gene predicts sensitivity to MAT2A inhibitors. Cells were plated in 96-well dishes at appropriate cell density. Following 24 hours, cells were then treated with the candidate MAT2A inhibitor. Prior to addition to cells, the compound was first serially diluted in 100% DMSO, typically as a 3-fold serial dilution starting at 500× top dose with 10 dose points including DMSO only control. Compound was then transferred to a working stock plate in cell culture media by adding 5 μL of compound in DMSO to 495 μL of cell culture media. This working stock was then added to cells via a further 5-fold dilution, by adding 25 μL of working stock to 100 μL of cells in culture media. Following compound addition, cells were incubated at 37° C./5% CO2 for 72 hrs.
To quantitate SAM levels following compound treatment, cells were gently washed once in ammonium carbonate buffer (75 mM at pH 7.4), placed on dry ice, and lysed with metabolite extraction buffer (80% cold methanol and 20% water (v/v) with acetic acid at 1M final concentration with 200 ng/mL deuterated d3-SAM as internal control). Following centrifugation at 4° C. at 3,200 rpm for 30 minutes, the supernatant was collected and stored at −80° C. until analysis by Liquid Chromatography with tandem Mass Spectrometry (LC-MS/MS). LC-MS/MS analysis was performed using an API6500 Mass Spectrometer (Sciex, Framingham, MA, USA) operating in positive ion spray mode and equipped with a Waters UPLC Acquity (Waters, Milford, MA, USA) BEH Amide column. Multiple Reaction Monitoring data was acquired for SAM and the d3-SAM standard, using a mass transition pair at m/z 399.2→250.1 and 402.2→250.1, respectively. In a typical LC-MS/MS analysis, the initial flow rate was 0.5 ml/min of 25% mobile phase A (acetonitrile and water at 5:95 (v/v) with 1% formic acid and 10 mM ammonium acetate) and 75% mobile phase B (acetonitrile and water at 95:5 (v/v) with 1% formic acid and 10 mM ammonium acetate), 0.2-0.5 minutes with 75%-35% mobile phase B, 25%-65% mobile phase A, at 0.5 min 65% mobile phase A and 35% mobile phase B, 1.0-1.1 minutes with 35%-75% mobile phase B, 65%-25% mobile phase A, at 1.1 min 25% mobile phase A and 75% mobile phase B with a total run time of 1.5 minutes.

MAT2A homodimer = biological target: T1, MAT2A homodimer (Homo sapiens, UniProt P31153); assay: MAT2A biochemical assay (phosphate release, PiColorLock Gold); details: recombinant MAT2A homodimer, 60 min pre-incubation, 25° C.; read-out: Enzyme Inhibition
T1 construct: inferred from Ni sepharose purification and imidazole elution; made in house; host or cells: SF9 insect cells, recombinant baculovirus (Bac to Bac, pFASTBAC1)
Description: Mat2A protein was expressed by recombinant baculovirus in SF9 infected cells using the Bac to Bac system cloned into the pFASTBAC1 vector (Invitrogen, Carlsbad, CA). Recombinant MAT2A was isolated from the cell lysate of 150 g of infected cells using HP Ni sepharose column chromatography. Recombinant MAT2A homodimer was eluted with 250 and 500 mM imidazole, and fractions containing MAT2A were identified by sodium dodecyl sulfate polyacrylamide gel electrophoresis and pooled.
For determination of the inhibitory potency of compounds against the MAT2A homodimer, protein was diluted to 4 μg/mL in assay buffer (50 mM Tris, pH 8.0, 50 mM KCl, 15 mM MgCl2, 0.3 mM EDTA, 0.005% [w/v] bovine serum albumin [BSA]). Test compound was prepared in 100% dimethyl sulfoxide (DMSO) at 50× the desired final concentration. A 1 μL volume of compound dilution was added to 40 μL of enzyme dilution and the mixture was allowed to equilibrate for 60 minutes at 25° C. The enzymatic assay was initiated by the addition of 10 μL of substrate mix (500 μM ATP, pH 7.0, 400 μM L-methionine in 1× assay buffer), and the mixture was incubated for a further 60 minutes at 25° C. The reaction was halted and the liberated phosphate released by the enzyme in stoichiometric amounts by the production of S-adenosyl methionine (SAM) was measured using the PiColorLock Gold kit (Innova Biosciences, UK). Absolute product amounts were determined by comparison to a standard curve of potassium phosphate buffer, pH 8.0.

[2] = HCT-116, HCT116 MTAP −/−, 72 hrs

T1 sequence (P31153 whole entry): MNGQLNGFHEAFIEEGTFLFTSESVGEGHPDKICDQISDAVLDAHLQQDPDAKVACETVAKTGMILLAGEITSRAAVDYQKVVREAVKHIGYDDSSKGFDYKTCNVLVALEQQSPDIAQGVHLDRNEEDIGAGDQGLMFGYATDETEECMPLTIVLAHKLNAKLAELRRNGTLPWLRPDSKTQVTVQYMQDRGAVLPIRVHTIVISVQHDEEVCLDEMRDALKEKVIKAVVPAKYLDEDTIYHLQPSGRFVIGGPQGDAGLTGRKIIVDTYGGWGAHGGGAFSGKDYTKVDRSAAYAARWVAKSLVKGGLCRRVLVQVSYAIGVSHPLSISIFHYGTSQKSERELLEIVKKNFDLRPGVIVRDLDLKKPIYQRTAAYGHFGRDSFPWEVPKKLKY

Compound | IC50 (HCT116 MTAP−/−) [nM] | IC50 (HCT116 MTAP+/+) [nM] | IC50 [1, 2] [nM] | IC50 (MAT2A homodimer) [nM] | IC50 ([1]; HCT-116, 72 h) [nM]
Cn1cc2cc(-n3nc4ccc(OCC(F)F)nc4c(-c4ccccc4)c3=O)ccc2n1 [Example 133] | 100 to 1000 | ≥ 1000 | < 100 | < 100 | 
Cn1cc2cc(-n3nc4ccc(OCC(F)F)nc4c(-c4ccncc4)c3=O)ccc2n1 [Example 134] | ≥ 1000 | ≥ 1000 | 100 to 1000 | < 100 | 
CCOc1ccc2nn(-c3ccc(OC)cc3)c(=O)c(-c3ccc(OC(F)F)cc3)c2n1 [Example 135] | 100 to 1000 | ≥ 1000 | < 100 | < 100 | 
CCOc1ccc2nn(-c3ccc(OC)cc3)c(=O)c(-c3ccc(OC(F)(F)F)nc3)c2n1 [Example 136] | 100 to 1000 | ≥ 1000 | 100 to 1000 | < 100 | 
Cn1cc2cc(-n3nc4ccc(OCC5CC5)nc4c(-c4ccc(OC(F)F)cc4)c3=O)ccc2n1 [Example 137] | < 100 | ≥ 1000 | < 100 | < 100 | 
CC(C)Oc1ccc2nn(-c3ccc4nn(C)cc4c3)c(=O)c(-c3ccc(OC(F)F)cc3)c2n1 [Example 138] | < 100 | ≥ 1000 | < 100 | < 100 | 
[2H]C([2H])([2H])Oc1ccc(-c2c(=O)n(-c3ccc4nn(C)cc4c3)nc3ccc(OCC(F)F)nc23)cn1 [Example 139] | < 100 | 100 to 1000 | < 100 | < 100 | 
Cn1cc2cc(-n3nc4ccc(OCC(F)F)nc4c(-c4cccc(Cl)c4)c3=O)ccc2n1 [Example 140] | < 100 | ≥ 1000 | 100 to 1000 | < 100 | 
CC(C)COc1ccc2nn(-c3ccc4nn(C)cc4c3)c(=O)c(-c3ccc(OC(F)F)cc3)c2n1 [Example 141] | 100 to 1000 | ≥ 1000 | < 100 | < 100 | 
Cn1cc2cc(-n3nc4c(COC5CCCCO5)cc(OCC(F)F)nc4c(-c4ccc(OC(F)F)cc4)c3=O)ccc2n1 (stereo not drawn) [Example 142, 6-(2,2-difluoroethoxy)-4-(4-(difluoromethoxy)phenyl)-2-(2-methyl-2H-indazol-5-yl)-8-(((tetrahydro-2H-pyran-2-yl)oxy)methyl)pyrido[3,2-c]pyridazin-3(2H)-one] | 100 to 1000 | ≥ 1000 |  | < 100 | 100 to 1000
O=c1c(-c2ccc(Cl)cc2)c2nc(OCC(F)F)ccc2nn1-c1ccc2ncsc2c1 [Example 143] | < 100 | ≥ 1000 | < 100 | < 100 | 
COc1ccc(-c2c(=O)n(-c3ccc4ncsc4c3)nc3ccc(OCC(F)F)nc23)cc1 [Example 144] | < 100 | ≥ 1000 | < 100 | < 100 | 
CCOc1ccc2nn(-c3ccc4ncsc4c3)c(=O)c(-c3ccc(OC(F)F)cc3)c2n1 [Example 145] | < 100 | ≥ 1000 | < 100 | < 100 | 

Now from value to compound, other results behind:

IC50 (HCT116 MTAP−/−) [nM] | IC50 (HCT116 MTAP+/+) [nM] | IC50 [1, 2] [nM] | IC50 (MAT2A homodimer) [nM] | Compound | IC50 ([1]; HCT-116, 72 h) [nM]
< 100 | ≥ 1000 | < 100 | < 100 | CC(C)Oc1ccc2nn(-c3ccc4ncsc4c3)c(=O)c(-c3ccc(OC(F)F)cc3)c2n1 [Example 146] | 
100 to 1000 | ≥ 1000 | 100 to 1000 | < 100 | O=c1c(-c2ccc(C3CC3)nc2)c2nc(OCC(F)F)ccc2nn1-c1ccc2ncsc2c1 [Example 147] | 
100 to 1000 | ≥ 1000 | 100 to 1000 | < 100 | O=c1c(-c2ccc(OC(F)F)nc2)c2nc(OCC(F)F)ccc2nn1-c1ccc2ncsc2c1 [Example 148] | 
100 to 1000 | ≥ 1000 | < 100 | < 100 | Cn1cc2cc(-n3nc4ccc(OCC(F)F)nc4c(C4=CCC(O)CC4)c3=O)ccc2n1 (stereo not drawn) [Example 149] | 
< 100 | ≥ 1000 | < 100 | < 100 | Cn1cc2cc(-n3nc4ccc(OCC(F)F)nc4c(-c4ccc5[nH]ccc5c4)c3=O)ccc2n1 [Example 150] | 
< 100 | ≥ 1000 | < 100 | < 100 | [2H]C([2H])([2H])Oc1ccc(-c2c(=O)n(-c3ccc4ncsc4c3)nc3ccc(OCC(F)F)nc23)cc1 [Example 151] | 
< 100 | 100 to 1000 | < 100 | < 100 | COC1CC=C(c2c(=O)n(-c3ccc4nn(C)cc4c3)nc3ccc(OCC(F)F)nc23)CC1 (stereo not drawn) [Example 152] | 
≥ 1000 | ≥ 1000 | > 1000 | 100 to 1000 | Cn1cc2cc(-n3nc4ccc(OCC(F)F)nc4c(-c4ccn[nH]4)c3=O)ccc2n1 [Example 153] | 
< 100 | ≥ 1000 | < 100 | < 100 | Cn1cc2cc(-n3nc4ccc(NCC(F)(F)F)nc4c(-c4ccc(Cl)cc4)c3=O)ccc2n1 [Example 154] | 
< 100 | ≥ 1000 | < 100 | < 100 | Cn1cc2cc(-n3nc4ccc(NC5CC5)nc4c(-c4ccc(Cl)cc4)c3=O)ccc2n1 [Example 155] | 
< 100 | ≥ 1000 | < 100 | < 100 | Cn1cc2cc(-n3nc4ccc(NCC(F)F)nc4c(-c4ccc(Cl)cc4)c3=O)ccc2n1 [Example 156] | 
